≈ marks a conversion by molar mass, not a printed value.

In one assay the test system is S. aureus. The assay can be described thus: Biofilm formation on polystyrene microtitre plates (crystal violet, O.D.570). In kind it is cell-based, Staphylococcus aureus. The conditions noted are these: DK825, 200 μM. How it is done:
Effect of c-di-GMP on S. aureus biofilm formation. S. aureus strains were subcultured from glycerol stocks onto blood agar plates and incubated at 37° C. for 18 h. A single colony was inoculated into 5 ml TSB broth with a sterilized loop and incubated at 37° C. for 18 h with shaking at 250 rpm and until the O.D.660 reached 3.0 as measured spectrophotometrically using a spectrophotometer (SpectraMAX 250, Molecular Devices). Following incubation, the culture was diluted 1:250 with fresh TSB and a 200 μl of the diluted culture was transferred into wells of a flat-bottom polystyrene microtitre plate (Evergreen Scientific). […] In these biofilm experiments, similar volumes of 0.9% NaCl was added to a set of different wells representing the “untreated” control samples. The microtitre plates were then incubated statically at 37° C. for 24 h or 48 h. Following incubation, the supernatant was carefully discarded and the wells washed twice with 260 μl PBS. The plate was then kept for drying on a paper towel for 30 min after which 260 μl 0.1% crystal violet was added to each well and the plates incubated at room temperature for 30 min. The crystal violet was discarded and plate washed gently with water, the wells allowed to dry for 30 min then 260 μl DMSO was added to each well and gently agitated for 1 h and the O.D.570 measured by using a spectrophotometer (SpectraMAX 250, Molecular Devices). The results of these biofilm assays were based on data obtained from at least three independent colonies tested in duplicate.

The test system of the next assay is S. aureus strain 15981. The conditions noted are these: S. aureus 15981, hyperbiofilm human clinical strain; cited from earlier work.
For a further assay, the system named is S. aureus strain DK825. The assay can be described thus: microbe, parasite or virus in culture. Format: cell-based, Staphylococcus aureus. The protocol: Antibiotic susceptibility testing. Susceptibility tests were performed in Sensititre microtitre plates according to the manufacturer's instructions (Microbiology Systems).

Turning to `Nc1nc2c(ncn2[C@@H]2O[C@H](COP(=O)(O)O)[C@@H](O)[C@H]2O)c(=O)[nH]1` [5′-GMP, guanosine 5′-monophosphate, reference compound], in the assay with S. aureus, the “effect on biofilm formation” value is reported as “no effect”. As for `CC1(C)S[C@@H]2[C@H](NC(=O)[C@H](N)c3ccc(O)cc3)C(=O)N2[C@H]1C(=O)O` [AMX], the antibiotic susceptibility result in the assay on S. aureus strain 15981 was “susceptible”.

Turning to `CC1(C)S[C@@H]2[C@H](NC(=O)[C@H](N)c3ccccc3)C(=O)N2[C@H]1C(=O)O` [Ampicillin], the MIC with S. aureus strain DK825 (Staphylococcus aureus, MRSA) turned out to be 4 µg/mL (≈ 11.4 µM).

The molecule `O=C(O)c1cn(C2CC2)c2cc(N3CCNCC3)c(F)cc2c1=O` [Ciprofloxacin] yielded an MIC against S. aureus strain DK825 (Staphylococcus aureus, MRSA) of over 2 µg/mL. Turning to `CC[C@H]1OC(=O)[C@H](C)[C@@H](O[C@H]2C[C@@](C)(OC)[C@@H](O)[C@H](C)O2)[C@H](C)[C@@H](O[C@@H]2O[C@H](C)C[C@H](N(C)C)[C@H]2O)[C@](C)(OC)C[C@@H](C)C(=O)[C@H](C)[C@@H](O)[C@]1(C)O` [Clarithromycin], in the assay on S. aureus strain DK825 (Staphylococcus aureus, MRSA), the MIC was over 4 µg/mL.

Take `CCC[C@@H]1C[C@@H](C(=O)N[C@@H]([C@H]2O[C@H](SC)[C@H](O)[C@@H](O)[C@H]2O)[C@H](C)Cl)N(C)C1` [Clindamycin]: in the assay with S. aureus strain DK825 (Staphylococcus aureus, MRSA), the MIC was over 2 µg/mL. Regarding `C[C@H]1c2cccc(O)c2C(O)=C2C(=O)[C@]3(O)C(O)=C(C(N)=O)C(=O)[C@@H](N(C)C)[C@@H]3[C@@H](O)[C@@H]21` [DOX], the antibiotic susceptibility result in the assay with S. aureus strain 15981 is on record as “susceptible”. `CC[C@H]1OC(=O)[C@H](C)[C@@H](O[C@H]2C[C@@](C)(OC)[C@@H](O)[C@H](C)O2)[C@H](C)[C@@H](O[C@@H]2O[C@H](C)C[C@H](N(C)C)[C@H]2O)[C@](C)(O)C[C@@H](C)C(=O)[C@H](C)[C@@H](O)[C@]1(C)O` [Erythromycin] yielded an MIC with S. aureus strain DK825 (Staphylococcus aureus, MRSA) of over 4 µg/mL. Moreover, the antibiotic susceptibility result in the assay with S. aureus strain 15981 is reported as “susceptible”. Take `C[C@@H]1O[C@@H]1P(=O)(O)O` [FOF]: the antibiotic susceptibility entry in the assay on S. aureus strain 15981 is listed as “susceptible”.

Molecule `C[C@H]1COc2c(N3CCN(C)CC3)c(F)cc3c(=O)c(C(=O)O)cn1c23` [Levofloxacin] showed an MIC against S. aureus strain DK825 (Staphylococcus aureus, MRSA) of 2 µg/mL (≈ 5.53 µM). For the molecule `COc1cccc(OC)c1C(=O)N[C@@H]1C(=O)N2[C@@H]1SC(C)(C)[C@@H]2C(=O)O` [MET], the antibiotic susceptibility entry with S. aureus strain 15981 is recorded as “susceptible”. `COc1c(N2C[C@@H]3CCCN[C@@H]3C2)c(F)cc2c(=O)c(C(=O)O)cn(C3CC3)c12` [Moxifloxacin] gave an MIC in the assay with S. aureus strain DK825 (Staphylococcus aureus, MRSA) of 2 µg/mL (≈ 4.98 µM). As to `Cc1onc(-c2ccccc2)c1C(=O)N[C@@H]1C(=O)N2[C@@H]1SC(C)(C)[C@@H]2C(=O)O` [Oxacillin], the MIC with S. aureus strain DK825 (Staphylococcus aureus, MRSA) is over 2 µg/mL. For `CO[C@H]1/C=C/O[C@@]2(C)Oc3c(C)c(O)c4c(O)c(c(/C=N/N5CCN(C)CC5)c(O)c4c3C2=O)NC(=O)/C(C)=C\C=C\[C@H](C)[C@H](O)[C@@H](C)[C@@H](O)[C@@H](C)[C@H](OC(C)=O)[C@@H]1C` [Rifampin], the MIC against S. aureus strain DK825 (Staphylococcus aureus, MRSA) is over 2 µg/mL. `CN[C@H](CC(C)C)C(=O)N[C@H]1C(=O)N[C@@H](CC(N)=O)C(=O)N[C@H]2C(=O)N[C@H]3C(=O)N[C@H](C(=O)N[C@H](C(=O)O)c4cc(O)cc(O)c4-c4cc3ccc4O)[C@H](O)c3ccc(c(Cl)c3)Oc3cc2cc(c3O[C@@H]2O[C@H](CO)[C@@H](O)[C@H](O)[C@H]2O[C@H]2C[C@](C)(N)[C@H](O)[C@H](C)O2)Oc2ccc(cc2Cl)[C@H]1O` [Vancomycin]: the MIC against S. aureus strain DK825 (Staphylococcus aureus, MRSA) is under 0.5 µg/mL. Also, in the assay on S. aureus strain 15981, the antibiotic susceptibility entry is “susceptible”. On to `Nc1nc2c(ncn2[C@@H]2O[C@@H]3COP(=O)(O)O[C@H]3[C@H]2O)c(=O)[nH]1` [cGMP, guanosine 3′, 5′-cyclic monophosphate, reference compound], for which the “reduction of biofilm formation” value in the assay with S. aureus (24 h) is on record as about 40%. As for Penicillin, the MIC in the assay with S. aureus strain DK825 (S. aureus DK825 (MRSA)) is over 8 µg/mL.

Values taken from patent US8367716B2 (priority 2003, dated 2013).
